Biological target: BRAF^V600E protein (Homo sapiens, UniProt P15056, V600E)
Test: HiBiT cellular BRAF V600E degradation assay
Assay type: cell-based
Settings: 24 h incubation; for DC50: A375.10 cells (HiBiT tag knocked in at N-terminal of BRAF V600E), concentration at which 50% of total cellular BRAF V600E is degraded; for Emax: read-out: HiBit 24 h Emax
[1] = A375.10 cells, Emax = amount of residual protein remaining in the cell after compound treatment

Chain of BRAF^V600E protein (P15056 whole entry V600E): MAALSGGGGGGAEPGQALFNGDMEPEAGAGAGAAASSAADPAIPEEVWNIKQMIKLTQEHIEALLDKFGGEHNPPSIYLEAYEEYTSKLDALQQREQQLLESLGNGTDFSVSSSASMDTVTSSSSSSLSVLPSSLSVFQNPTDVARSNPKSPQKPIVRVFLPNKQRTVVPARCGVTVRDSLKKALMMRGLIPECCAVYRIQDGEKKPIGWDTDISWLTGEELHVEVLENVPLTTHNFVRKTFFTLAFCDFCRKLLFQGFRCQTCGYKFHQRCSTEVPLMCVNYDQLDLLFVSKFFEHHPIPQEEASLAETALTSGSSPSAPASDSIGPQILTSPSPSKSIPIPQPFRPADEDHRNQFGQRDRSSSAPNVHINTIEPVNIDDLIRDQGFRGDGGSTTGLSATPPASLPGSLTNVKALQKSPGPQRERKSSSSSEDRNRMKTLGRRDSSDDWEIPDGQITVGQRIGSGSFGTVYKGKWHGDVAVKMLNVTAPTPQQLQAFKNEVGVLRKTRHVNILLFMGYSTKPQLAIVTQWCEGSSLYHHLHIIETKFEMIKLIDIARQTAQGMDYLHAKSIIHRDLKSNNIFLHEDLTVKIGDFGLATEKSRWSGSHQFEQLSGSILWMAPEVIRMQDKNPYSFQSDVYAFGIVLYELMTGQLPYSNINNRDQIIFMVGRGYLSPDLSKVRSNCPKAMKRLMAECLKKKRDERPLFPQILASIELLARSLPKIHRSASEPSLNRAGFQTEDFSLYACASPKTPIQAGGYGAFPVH

Structure (SMILES): CCN(C)S(=O)(=O)Nc1ccc(F)c(C(=O)c2c[nH]c3ncc(-c4cnc(N5CCN(C(=O)CC6(O)CCN(c7ccc(NC8CCC(=O)NC8=O)cc7)CC6)CC5)nc4)cc23)c1F (stereo not shown) [Example 38, 5-[2-[4-[2-[1-[4-[(2,6-dioxo-3-piperidyl)amino]phenyl]-4-hydroxy-4-piperidyl]acetyl]piperazin-1-yl]pyrimidin-5-yl]-3-[3-[[ethyl(methyl)sulfamoyl]amino]-2,6-difluoro-benzoyl]-1H-pyrrolo[2,3-b]pyridine]
- DC50: 4.44 nM
- Emax [1]: 13.4%

Structure (SMILES): CCN(C)S(=O)(=O)Nc1ccc(F)c(C(=O)c2c[nH]c3ncc(-c4cnc(N5CCN(C(=O)CN6CCC(c7ccc(NC8CCC(=O)NC8=O)cc7C(F)F)CC6)CC5)nc4)cc23)c1F (stereo not shown) [Example 39, 5-[2-[4-[2-[4-[2-(difluoromethyl)-4-[(2,6-dioxo-3-piperidyl)amino]phenyl]-1-piperidyl]acetyl]piperazin-1-yl]pyrimidin-5-yl]-3-[3-[[ethyl(methyl)sulfamoyl]amino]-2,6-difluoro-benzoyl]-1H-pyrrolo[2,3-b]pyridine]
- DC50: 10.2 nM
- Emax [1]: 8.74%

Structure (SMILES): CCN(C)S(=O)(=O)Nc1ccc(F)c(C(=O)c2c[nH]c3ncc(-c4cnc(N5CCN(C(=O)CN6CCC(c7ccc(NC8CCC(=O)NC8=O)cc7C#N)CC6)CC5)nc4)cc23)c1F (stereo not shown) [Example 40, 5-[2-[4-[2-[4-[2-cyano-4-[(2,6-dioxo-3-piperidyl)amino]phenyl]-1-piperidyl]acetyl]piperazin-1-yl]pyrimidin-5-yl]-3-[3-[[ethyl(methyl)sulfamoyl]amino]-2,6-difluoro-benzoyl]-1H-pyrrolo[2,3-b]pyridine]
- DC50: 11.7 nM
- Emax [1]: 8.42%

Structure (SMILES): CCN(C)S(=O)(=O)Nc1ccc(F)c(C(=O)c2c[nH]c3ncc(-c4cnc(N5CCN(C(=O)CN6CCC(c7c(F)cc(OC8CCC(=O)NC8=O)cc7F)CC6)CC5)nc4)cc23)c1F (stereo not shown) [Example 41, 5-[2-[4-[2-[4-[4-[(2,6-dioxo-3-piperidyl)oxy]-2,6-difluoro-phenyl]-1-piperidyl]acetyl]piperazin-1-yl]pyrimidin-5-yl]-3-[3-[[ethyl(methyl)sulfamoyl]amino]-2,6-difluoro-benzoyl]-1H-pyrrolo[2,3-b]pyridine]
- DC50: 24.5 nM
- Emax [1]: 9.48%

Structure (SMILES): CCN(C)S(=O)(=O)Nc1ccc(F)c(C(=O)c2c[nH]c3ncc(-c4cnc(N5CCN(C(=O)CC6CCN(c7ccc(NC8CCC(=O)NC8=O)cc7F)CC6)CC5)nc4)cc23)c1F (stereo not shown) [Example 42, 5-[2-[4-[2-[1-[4-[(2,6-dioxo-3-piperidyl)amino]-2-fluoro-phenyl]-4-piperidyl]acetyl]piperazin-1-yl]pyrimidin-5-yl]-3-[3-[[ethyl(methyl)sulfamoyl]amino]-2,6-difluoro-benzoyl]-1H-pyrrolo[2,3-b]pyridine]
- DC50: 3.41 nM
- Emax [1]: 11.5%

Structure (SMILES): CCN(C)S(=O)(=O)Nc1ccc(F)c(C(=O)c2c[nH]c3ncc(-c4cnc(N5CCN(C(=O)CC6CCN(c7ccc8c(c7)n(C)c(=O)n8C7CCC(=O)NC7=O)CC6)CC5)nc4)cc23)c1F (stereo not shown) [Example 43, 1-(2,6-dioxo-3-piperidyl)-5-[4-[2-[4-[5-[3-[3-[[ethyl(methyl)sulfamoyl]amino]-2,6-difluoro-benzoyl]-1H-pyrrolo[2,3-b]pyridin-5-yl]pyrimidin-2-yl]piperazin-1-yl]-2-oxo-ethyl]-1-piperidyl]-3-methyl-2-oxo-benzimidazole]
- DC50: 22.1 nM
- Emax [1]: 35.2%

Structure (SMILES): CCN(C)S(=O)(=O)Nc1ccc(F)c(C(=O)c2c[nH]c3ncc(-c4cnc(N5CCN(C(=O)CN6CCC(c7ccc(N8CCC(=O)NC8=O)cc7F)CC6)CC5)nc4)cc23)c1F [Example 44, 5-[2-[4-[2-[4-[4-(2,4-dioxohexahydropyrimidin-1-yl)-2-fluoro-phenyl]-1-piperidyl]acetyl]piperazin-1-yl]pyrimidin-5-yl]-3-[3-[[ethyl(methyl)sulfamoyl]amino]-2,6-difluoro-benzoyl]-1H-pyrrolo[2,3-b]pyridine]
- DC50: 41.3 nM
- Emax [1]: 13.2%

Structure (SMILES): CCN(C)S(=O)(=O)Nc1ccc(F)c(C(=O)c2c[nH]c3ncc(-c4cnc(N5CCN(C(=O)CC6CCN(c7c(F)cc(NC8CCC(=O)NC8=O)cc7F)CC6)CC5)nc4)cc23)c1F (stereo not shown) [Example 45, 5-[2-[4-[2-[1-[4-[(2,6-dioxo-3-piperidyl)amino]-2,6-difluoro-phenyl]-4-piperidyl]acetyl]piperazin-1-yl]pyrimidin-5-yl]-3-[3-[[ethyl(methyl)sulfamoyl]amino]-2,6-difluoro-benzoyl]-1H-pyrrolo[2,3-b]pyridine]
- DC50: 23.6 nM
- Emax [1]: 14.2%

Structure (SMILES): CCN(C)S(=O)(=O)Nc1ccc(F)c(C(=O)c2c[nH]c3ncc(-c4cnc(N5CCN(C(=O)CN6CCC(c7c(F)cc(NC8CCC(=O)NC8=O)cc7F)CC6)CC5)nc4)cc23)c1F (stereo not shown) [Example 46, 5-[2-[4-[2-[4-[4-[(2,6-dioxo-3-piperidyl)amino]-2,6-difluoro-phenyl]-1-piperidyl]acetyl]piperazin-1-yl]pyrimidin-5-yl]-3-[3-[[ethyl(methyl)sulfamoyl]amino]-2,6-difluoro-benzoyl]-1H-pyrrolo[2,3-b]pyridine]
- DC50: 9.1 nM
- Emax [1]: 7.88%

Structure (SMILES): CCN(C)S(=O)(=O)Nc1ccc(F)c(C(=O)c2c[nH]c3ncc(-c4cnc(N5CCN(C(=O)CC6CCN(c7ccc8c(C9CCC(=O)NC9=O)nn(C)c8c7)CC6)CC5)nc4)cc23)c1F (stereo not shown) [Example 47, 3-(2,6-dioxo-3-piperidyl)-6-[4-[2-[4-[5-[3-[3-[[ethyl(methyl)sulfamoyl]amino]-2,6-difluoro-benzoyl]-1H-pyrrolo[2,3-b]pyridin-5-yl]pyrimidin-2-yl]piperazin-1-yl]-2-oxo-ethyl]-1-piperidyl]-1-methyl-indazole]
- DC50: 5.38 nM
- Emax [1]: 19.3%

Structure (SMILES): CCN(C)S(=O)(=O)Nc1ccc(F)c(C(=O)c2c[nH]c3ncc(-c4cnc(N5CCN(C(=O)CC6CCN(c7ccc(NC8CCC(=O)NC8=O)cc7F)C6)CC5)nc4)cc23)c1F (stereo not shown) [Example 48, 5-[2-[4-[2-[1-[4-[(2,6-dioxo-3-piperidyl)amino]-2-fluoro-phenyl]pyrrolidin-3-yl]acetyl]piperazin-1-yl]pyrimidin-5-yl]-3-[3-[[ethyl(methyl)sulfamoyl]amino]-2,6-difluoro-benzoyl]-1H-pyrrolo[2,3-b]pyridine]
- DC50: 23 nM
- Emax [1]: 15%

Structure (SMILES): CCN(C)S(=O)(=O)Nc1ccc(F)c(C(=O)c2c[nH]c3ncc(-c4cnc(N5CCN(C(=O)CN6CC7(C6)CN(c6ccc(NC8CCC(=O)NC8=O)cc6)C7)CC5)nc4)cc23)c1F (stereo not shown) [Example 49, 5-[2-[4-[2-[2-[4-[(2,6-dioxo-3-piperidyl)amino]phenyl]-2,6-diazaspiro[3.3]heptan-6-yl]acetyl]piperazin-1-yl]pyrimidin-5-yl]-3-[3-[[ethyl(methyl)sulfamoyl]amino]-2,6-difluoro-benzoyl]-1H-pyrrolo[2,3-b]pyridine]
- DC50: 24.9 nM
- Emax [1]: 17.5%

Structure (SMILES): CCN(C)S(=O)(=O)Nc1ccc(F)c(C(=O)c2c[nH]c3ncc(-c4cnc(N5CCN(C(=O)Cc6ccc(N7CCN(C8CCC(=O)NC8=O)C(=O)C7)cc6)CC5)nc4)cc23)c1F (stereo not shown) [Example 50, 5-[2-[4-[2-[4-[4-(2,6-dioxo-3-piperidyl)-3-oxo-piperazin-1-yl]phenyl]acetyl]piperazin-1-yl]pyrimidin-5-yl]-3-[3-[[ethyl(methyl)sulfamoyl]amino]-2,6-difluoro-benzoyl]-1H-pyrrolo[2,3-b]pyridine]
- DC50: 4.57 nM
- Emax [1]: 7.42%

Structure (SMILES): CCN(C)S(=O)(=O)Nc1ccc(F)c(C(=O)c2c[nH]c3ncc(-c4cnc(N5CCN(C(=O)CC6(O)CCN(c7ccc(NC8CCC(=O)NC8=O)cc7F)C6)CC5)nc4)cc23)c1F (stereo not shown) [Example 51, 5-[2-[4-[2-[1-[4-[(2,6-dioxo-3-piperidyl)amino]-2-fluoro-phenyl]-3-hydroxy-pyrrolidin-3-yl]acetyl]piperazin-1-yl]pyrimidin-5-yl]-3-[3-[[ethyl(methyl)sulfamoyl]amino]-2,6-difluoro-benzoyl]-1H-pyrrolo[2,3-b]pyridine]
- DC50: 5.51 nM
- Emax [1]: 6.09%

Structure (SMILES): CCN(C)S(=O)(=O)Nc1ccc(F)c(C(=O)c2c[nH]c3ncc(-c4cnc(N5CCN(C(=O)CN6CC[C@@H](c7ccc(NC8CCC(=O)NC8=O)cc7)C(F)(F)C6)CC5)nc4)cc23)c1F (stereo partly drawn) [Example 54, 5-[2-[4-[2-[(4S)-4-[4-[(2,6-dioxo-3-piperidyl)amino]phenyl]-3,3-difluoro-1-piperidyl]acetyl]piperazin-1-yl]pyrimidin-5-yl]-3-[3-[[ethyl(methyl)sulfamoyl]amino]-2,6-difluoro-benzoyl]-1H-pyrrolo[2,3-b]pyridine]
- DC50: 4.72 nM
- Emax [1]: 6.94%

Structure (SMILES): CCN(C)S(=O)(=O)Nc1ccc(F)c(C(=O)c2c[nH]c3ncc(-c4cnc(N5CCN(C(=O)CN6CC[C@H](c7ccc(NC8CCC(=O)NC8=O)cc7)C(F)(F)C6)CC5)nc4)cc23)c1F (stereo partly drawn) [Example 55, 5-[2-[4-[2-[(4R)-4-[4-[(2,6-dioxo-3-piperidyl)amino]phenyl]-3,3-difluoro-1-piperidyl]acetyl]piperazin-1-yl]pyrimidin-5-yl]-3-[3-[[ethyl(methyl)sulfamoyl]amino]-2,6-difluoro-benzoyl]-1H-pyrrolo[2,3-b]pyridine]
- DC50: 4.61 nM
- HiBit 24 h Emax [1]: 6.57%

Structure (SMILES): CCN(C)S(=O)(=O)Nc1ccc(F)c(C(=O)c2c[nH]c3ncc(-c4cnc(N5CCN(C(=O)CC6CCN(c7ccc8c(N9CCC(=O)NC9=O)nn(C)c8c7)CC6)CC5)nc4)cc23)c1F [Example 56, 3-(2,4-dioxohexahydropyrimidin-1-yl)-6-[4-[2-[4-[5-[3-[3-[[ethyl(methyl)sulfamoyl]amino]-2,6-difluoro-benzoyl]-1H-pyrrolo[2,3-b]pyridin-5-yl]pyrimidin-2-yl]piperazin-1-yl]-2-oxo-ethyl]-1-piperidyl]-1-methyl-indazole]
- DC50: 5.12 nM
- Emax [1]: 14.3%

— patent US12559492B2, “BRAF degraders” (C4 Therapeutics, Inc., priority 2020, dated 2026)
